“Also recorded” adds a separate entry of the source. Read-outs that look alike come from different tables or passages of the source.
What was measured:
Format in all cases: cell-based, human
NCI/ADR-RES cells = test: SRB cytotoxicity assay in NCI/ADR-RES cells transfected with ABCB1 or mock siRNA; settings: for Fold reversal: mock vs ABCB1 siRNA; for effect of ABCB1 siRNA on chemosensitivity to the drug: result in words
Protocol: (§1) Human cancer cells were transfected with ABCB1, ABCB5 or mock siRNA. Drug activity was measured with the SRB assay. IC50 is the concentration that produced 50% inhibition of cell growth compared to controls. Results represent the mean of two or mean±SD of at least three independent experiments.
(§2) We next compared growth-inhibitory IC50 values of siRNA-treated to that of mock-treated cells using a sulforhodamine B (SRB) cell proliferation assay.
(§3) Cell lines, obtained from Division of Cancer Treatment and Diagnosis at NCI, were cultured in RPMI 1640 containing 10% heat-inactivated fetal calf serum in a 5% CO2 incubator at 37° C. Transfection was performed with TransMessenger Transfection Reagent (QIAGEN). To down-regulate ABCB1 or ABCB5, cancer cells were transfected with 0.3 or 0.6 μM siRNA. For RNA extraction, cells were harvested 48 hours after transfection.
(§4) Cytotoxicity assay. 5FU, Camptothecin, and Mitoxathone were obtained from Sigma. The other compounds were from Developmental Therapeutics Program at NCI. […] Anticancer drugs were added in a dilution series in 6 replicated wells. After 4 days, incubation was terminated by replacing the medium with 100 μl 10% trichloroacetic acid (Sigma, St. Louis, Mo.) in 1×PBS, followed by incubation at 4° C. for at least 1 hour. Subsequently, the plates were washed with water and air-dried. The plates were stained with 100 μl 0.4% SRB (Sigma) in 1% acetic acid for 30 min at room temperature. Unbound dye was washed off with 1% acetic acid. After air-drying and re-solubilization of the protein-bound dye in 10 mM Tris-HCl (pH 8.0), absorbance was read by a micro-plate reader at 570 nm. To determine the IC50 values, the absorbance of control cells without drug was set at 1. Dose-response curves were plotted using SigmaPlot software (RockWare, Golden, Colo.). Each experiment was performed independently at least three times.

SK-MEL-28 cells = test: SRB cytotoxicity assay in SK-MEL-28 cells transfected with ABCB5 or mock siRNA; settings: for IC50: 4 days drug, SRB; for Fold reversal: mock vs ABCB5 siRNA; for effect of ABCB5 siRNA on chemosensitivity to the drug: result in words
Protocol: Human cancer cells were transfected with ABCB1, ABCB5 or mock siRNA. Drug activity was measured with the SRB assay. […] Results represent the mean of two or mean±SD of at least three independent experiments.
To identify suitable ABCB5 domains for siRNA-mediated gene silencing, siRNA duplexes against three target domains were synthesized and transfected into SK-MEL-28 cells.
Transfection was performed with TransMessenger Transfection Reagent (QIAGEN). To down-regulate ABCB1 or ABCB5, cancer cells were transfected with 0.3 or 0.6 μM siRNA. For RNA extraction, cells were harvested 48 hours after transfection.
as §4

HCT-15 cells = test: SRB cytotoxicity assay in HCT-15 cells transfected with ABCB1 or mock siRNA; settings: for Fold reversal: mock vs ABCB1 siRNA
Protocol: as §1, §2, §3, §4

[1] = Homo sapiens, 96 h, NCI/ADR-RES cells, ABCB1 siRNA, 4 days drug, SRB, read-out: IC50 (μM) siRNA
[2] = Homo sapiens, 96 h, NCI/ADR-RES cells, mock siRNA, 4 days drug, SRB, read-out: IC50 (μM) Mock
[3] = Homo sapiens, 96 h, ABCB5 siRNA, read-out: IC50 (μM) siRNA
[4] = Homo sapiens, 96 h, mock siRNA, read-out: IC50 (μM) Mock
[5] = ABCB5 siRNA, read-out: IC50 (μM) siRNA
[6] = mock siRNA, read-out: IC50 (μM) Mock
[7] = Homo sapiens, 96 h, HCT-15 cells, ABCB1 siRNA, 4 days drug, SRB, read-out: IC50 (μM) siRNA
[8] = Homo sapiens, 96 h, HCT-15 cells, mock siRNA, 4 days drug, SRB, read-out: IC50 (μM) Mock

Compound | IC50 (NCI/ADR-RES cells; [1]) [µM] | IC50 (NCI/ADR-RES cells; [2]) [µM] | Fold reversal (NCI/ADR-RES cells; NCI/ADR-RES cells) | Fold reversal (SK-MEL-28 cells) | effect of ABCB5 siRNA on chemosensitivity to the drug (SK-MEL-28 cells) | Fold reversal (HCT-15 cells; HCT-15 cells) | also measured
O=c1[nH]cc(F)c(=O)[nH]1 [5FU, fluorouracil] | 1000 | 900 | 0.90 | 1.96 ± 0.16 | Enhanced chemosensitivity |  | effect of ABCB1 siRNA on chemosensitivity to the drug (NCI/ADR-RES cells; NCI/ADR-RES cells): unaffected; also recorded: no effect on potency; IC50 (SK-MEL-28 cells; [3]): 6.43 ± 2.67 µM; IC50 (SK-MEL-28 cells; [4]): 12.4 ± 4.6 µM
COc1cc(NS(C)(=O)=O)ccc1Nc1c2ccccc2nc2ccccc12 [AMSA] |  |  |  |  | no change in potency |  | 
CCS(=O)(=O)O.CN(C)C(=O)c1cccc(COc2ccc(N3C(N)=NC(N)=NC3(C)C)cc2Cl)c1 [Baker's antifol, Baker's-soluble-antifol] |  |  | 3.23 ± 0.45 |  |  | 1.47 ± 0.29 | IC50 (NCI/ADR-RES cells; NCI/ADR-RES cells, ABCB1 siRNA, 4 days drug, SRB, read-out: IC50 (μM) siRNA): 131 ± 36.7 µM; IC50 (NCI/ADR-RES cells; NCI/ADR-RES cells, mock siRNA, 4 days drug, SRB, read-out: IC50 (μM) Mock): 420 ± 120 µM; IC50 (HCT-15 cells; HCT-15 cells, ABCB1 siRNA, 4 days drug, SRB, read-out: IC50 (μM) siRNA): 33.7 ± 6.23 µM; IC50 (HCT-15 cells; HCT-15 cells, mock siRNA, 4 days drug, SRB, read-out: IC50 (μM) Mock): 48.2 ± 5.18 µM
C(=N\NC1=NCCN1)/c1c2ccccc2c(/C=N/NC2=NCCN2)c2ccccc12 [Bisantrene] |  |  | >4.22 |  |  | 1.39 | IC50 (NCI/ADR-RES cells; Homo sapiens, NCI/ADR-RES, 96 h, read-out: IC50 (μM) Mock): > 100 µM; IC50 (NCI/ADR-RES cells; Homo sapiens, NCI/ADR-RES, 96 h, read-out: IC50 (μM) siRNA): 23.7 µM; IC50 (HCT-15 cells; Homo sapiens, HCT-15, 96 h, read-out: IC50 (μM) Mock): 7.63 µM; IC50 (HCT-15 cells; Homo sapiens, HCT-15, 96 h, read-out: IC50 (μM) siRNA): 5.47 µM
CC[C@@]1(O)C(=O)OCc2c1cc1n(c2=O)Cc2cc3cc(O)ccc3nc2-1 [CPT,10-OH] |  |  |  | 3.62 ± 1.35 | Enhanced chemosensitivity |  | IC50 (SK-MEL-28 cells; [5]): 0.14 ± 0.02 µM; IC50 (SK-MEL-28 cells; [6]): 0.48 ± 0.12 µM
CC[C@@]1(O)C(=O)OCc2c1cc1n(c2=O)Cc2cc3ccccc3nc2-1 [Camptothecin] |  |  |  | 2.17 |  |  | IC50 (SK-MEL-28 cells; [3]): 0.06 µM; IC50 (SK-MEL-28 cells; [4]): 0.13 µM
COC1=C2C[C@@H](C)C[C@H](OC)[C@H](O)[C@@H](C)/C=C(\C)[C@H](OC(N)=O)[C@@H](OC)/C=C\C=C(/C)C(=O)NC(=CC1=O)C2=O [Geldanamycin, geldanamycin] | 3.6 ± 0.6 | 6.84 ± 1.08 | 1.95 ± 0.45 |  |  | 1.26 ± 0.14 | IC50 (HCT-15 cells; [7]): 8.2 ± 3.88 µM; IC50 (HCT-15 cells; [8]): 9.91 ± 3.96 µM
O=C1c2c(O)ccc(O)c2C(=O)c2c(NCCNCCO)ccc(NCCNCCO)c21 [Mitoxathone] |  |  |  | 1.37 | no change in potency; also recorded: no effect on potency |  | IC50 (SK-MEL-28 cells; [5]): 0.79 µM; IC50 (SK-MEL-28 cells; [6]): 1.08 µM
CC(=O)O[C@H]1C(=O)[C@@]2(C)[C@H]([C@H](OC(=O)c3ccccc3)[C@]3(O)C[C@H](OC(=O)[C@H](O)[C@@H](NC(=O)c4ccccc4)c4ccccc4)C(C)=C1C3(C)C)[C@]1(OC(C)=O)CO[C@@H]1C[C@@H]2O [Palitaxel, Paclitaxel] | 1.06 | 8.01 | 7.57 |  |  | 1.72 | effect of ABCB1 siRNA on chemosensitivity to the drug (NCI/ADR-RES cells; NCI/ADR-RES cells): Enhanced chemosensitivity; IC50 (HCT-15 cells; [7]): 0.18 µM; IC50 (HCT-15 cells; [8]): 0.31 µM

From US20050208512A1, “Determining the chemosensitivity of cells to cytotoxic agents” (The Ohio State University Research Foundation, priority 2003, published 2005)
